Measured values reported in patent US11345659B2, “Pipecolic esters for inhibition of the proteasome” (THE BOARD OF REGENTS OF THE UNIVERSY OF TEXAS SYSTEM, priority 2018, dated 2022).

What was measured:
[1] = target: T1, 20 S proteasome (Homo sapiens, UniProt P25787+P25789); assay: T-L peptidase activity of tRpt5-activated 20 S core; format: biochemical; details: core activated with tRpt5
T1 construct: purified from erythrocytes; purchased Enzo Life Sciences, Inc. (Farmingdale, N.Y.); host or cells: human erythrocytes

[2] = tested on: Human multiple myeloma RPMI 8226 cells; assay: Proliferation of RPMI 8226 cells, live cell count by Trypan Blue exclusion; format: cell-based
Method: Human multiple myeloma RPMI 8226 cells were purchased from American Type Culture Collection (ATCC; Manassas, Va.) and cultured according to ATCC specifications. […] The content of live cells was determined by excluding the Trypan Blue-stained cells. The cells were counted with TC20 Automated Cell Counter (Bio-Rad Laboratories, Hercules, Calif.) and EC50 was calculated with Origin Pro 2017 (OriginLab Corporation, Northampton, Mass.). When indicated, the cells were harvested, washed twice in PBS, resuspended in dilution buffer and stored in −80° C. To prepare crude lysates the thawed preparations were vortexed with glass beads and centrifuged for 5 min 5,000×g (4° C.). The supernate was centrifuged for 20 min 14,000×g. The resulting supernate was used as “crude lysate.” SDS-PAGE was carried in 12% acrylamide, Tris-glycine gels from Invitrogen. Chameleon Duo (Li-Cor) and Rainbow RPN800E (GE Healthcare) molecular weight standards were separated on each gel alongside lysates. The proteins were transferred to nitrocellulose membrane in a semi-dry system. The membranes were probed with specific primary antibodies from Life Technologies (S6, PS6) and Li-Cor (COX IV), and then with secondary antibodies from Li-Cor. In each experiment visualization of S6, PS6 and COX IV was performed on the same membrane with Odyssey Infrared Imaging System (Li-Cor).
The effects of compound 3 observed in vitro prompted its influence on the proliferation of cultured cancer cells to be tested, namely the multiple myeloma RPMI 8226 line. […] Such relatively low EC50, as compared to in vitro determined IC50 values for peptidase activities (2-3 μM; FIG. 3A and FIG. 3B) should come to no surprise. […] The in vitro readout of single peptidase activities is a useful and convenient measure of the catalytic prowess of proteasome. However, especially in the case of allosteric regulators, it may not fully reflect the important structural and functional effects.
Referring to FIG. […] The data are averages (±SD) of three-to-five independent experiments. […]

[3] = target: T2, latent core 20 S proteasome (Homo sapiens, UniProt P25787+P25789); assay: T-L peptidase activity of latent 20 S core; format: biochemical
T2 construct: purified from erythrocytes; purchased Enzo Life Sciences, Inc. (Farmingdale, N.Y.); host or cells: human erythrocytes

COc1cc(CCCOC(=O)[C@@H]2CCCCN2C(=O)OCc2ccccc2)cc(OC)c1OC [Compound 3, 1-benzyl 2-(3-(3,4,5-trimethoxyphenyl)propyl) (S)-piperidine-1,2-dicarboxylate]
effect on T-L peptidase [1]: not affected | activity at 0.2 µM ([2]; RPMI 8226, 0.2 μM, 24 hours, read-out: cell proliferation, % of control): 60 to 65% | EC50 ([2]; RPMI 8226, 48 hours, read-out: EC50, content of live cells): 550 nM | IC50 [3]: > 50000 nM | remaining activity at 1 µM ([3]; 1 μM compound, n=3, read-out: T-L activity, % of the control): 77% | remaining activity at 50 µM ([3]; 50 μM compound, n=4, read-out: T-L activity, % of the control): 64%
